Source: US20160113895A1, “Novel Use of Adapalene in Treating Esophageal Cancer and Gastrointestinal Stromal Tumor” (Biodelight Biotech Inc., priority 2013, published 2016)

What was measured:
H460 = assay: 3D cell proliferation assay (soft agar), H460; assay type: cell-based, human; conditions: Homo sapiens, NCI-H460, 3D soft agar
Description: Drug nsl-8 was further subjected to a 3D cell proliferation assay for assessing its potential in inhibiting the growth of NSCLC tumors. The same four NSCLC cell lines used in 2D proliferation assays were grown in soft agar and the drug was added after the agar has solidified. The drug added cells were then incubated several days until colonies have formed in the solvent control. Subsequently, Alamar Blue which was a cell viability reagent was added and the corresponding fluorescence released was measured as an indirect quantification of colony growth in soft agar.
For each cell line, some 96 well culture plates were prepared. 100 μL of the soft agar bottom layer (0.6% final concentration in complete medium) was poured and left to solidify. 50 μL of the soft agar top layer (0.4% final concentration) containing the corresponding cells and cell number were then added on top, solidified and such 96 well plates were incubated overnight at 37° C. in 10% CO2. Next day, drugs were added at indicated final concentrations into the inner wells of the plate. Subsequently, the assays were incubated in cell culture incubators for the indicated period of time. Finally, the assays were developed using Alamar Blue and upon 3-5 h of incubation at 37 ° C. fluorescence intensity was determined (excitation: 560 nm, emission: 590 nm). […]

A549 implanted tumors = assay: Subcutaneous A549 xenograft model, groups 1a/1b, i.p.; assay type: in vivo, BALB/c nude mice; conditions: 40 mg/kg i.p. once daily, after treatment days 48-52
Description: All experiments were performed using either 5-6 weeks old female BALB/c nude mice (approximate weight: 16-20 g) (A549) or female SCID mice (approximate weight: 16-20 g) (A549 and HCC827). […] Animal behaviour was monitored daily.
At necropsy, animals were killed by cervical dislocation. Primary tumor weights and volumes were determined.
The treatment for groups 1a and 1b (A549 model) animals with drug nsl-8 was started on day 48 and terminated on day 69. The animals were not consecutively treated with nsl-8 during the entire treatment period of 48-68 days. Instead, there was an interruption between treatment days 48-52 and 62-66 (FIG. 4) due to an apparent weight loss observed in the treated animals, an ethical reason which caused the treatment to be suspended. […] However, the animals were able to recover from such a weight loss after several days of cessation of treatment (FIG. 5). After weight loss of treated animals was recovered, a second treatment cycle from days 62-66 was resumed (FIG. 5). This second treatment cycle caused weight loss again (FIG. 5). However, the study groups 1a and 1b were both terminated on day 69 due to the presence of tumor ulceration in some animals. Note that weight loss in animals treated with vehicle was also observed in the final stage of treatment (FIG. 5). We speculated that such a loss might be caused by the presence of 10% DMSO in the prepared vehicle. […]

HCC827 implanted tumors = assay: Subcutaneous HCC827 xenograft model, groups 3a-3c, o.p.; conditions: for Tumor inhibition rate (%): HCC827, o.p. once daily, NSL-8 70 mpk, Tarceva 20 mpk
Description: The antitumor efficacy of the drug lead nsl-8 searched was studied using the subcutaneous xenografted A549 and HCC827 lung cancer tumor models in vivo. […] Mice were maintained in individual ventilated cages (IVC, max. 4 mice/cage) at constant temperature and humidity. Animal weights were determined three times (Monday, Wednesday and Friday) for groups 1a and 1b or two times (Monday and Thursday) for groups 2a-2c and 3a-3c animals. Animal behaviour was monitored daily.
On day 0, either 2×10^6 A549 or 2×10^6 HCC827 tumor cells in 100 μL PBS were implanted into the subcutaneous space of the left flank of all corresponding BALB/c nude and SCID mice, respectively. In the following, tumor sizes were determined by caliper measurement. Tumor sizes were calculated according to the formula W^2×Lg/2 (Lg=length and W=the perpendicular width of the tumor, L>W). On day 48 or 30, after mean tumor volumes had reached approx. 100 mm^3, the corresponding tumor-bearing animals were randomized into 2 groups of 8 (A549 model: groups 1a and 1b) or 10 animals (A549 model: groups 2a and 2b) according to tumor sizes. On day 24 or 28, after mean tumor volumes had reached approx. 100 mm^3, the corresponding tumor-bearing animals were randomized into 2 groups of 10 animals (HCC827 model: groups 3a and 3b) according to tumor sizes. […] The percentage of tumor growth inhibition (TGI) was calculated using the following formula: […]
where T and C represent the mean tumor volume of the treatment and the control group, respectively.
The solution was aliquoted into several 15 ml sterile centrifuge tubes in 650 μl quantity per tube and then stored frozen at −80° C. until use. […] Animals of group 1b received 40 mg/kg nsl-8 dosage solution once daily through i.p. route on days 48-52 and 62-66, while those of groups 2b and 3b received 70 mg/kg nsl-8 dosage solution once daily through o.p. route on days 1-14 (group 2b) and days 1-14 (group 3b), respectively (Table 4).
Groups 1a and 1b (A549 model) were terminated on day 69, while groups 2a-2c (A549 model) and 3a-3c (HCC827 model) were terminated on day 15. At necropsy, animals were killed by cervical dislocation. Primary tumor weights and volumes were determined. The tumor volume and weight were analysed using descriptive data analysis (Mean, SEM, Median). Statistical analysis of efficacy data was performed using the unpaired t-test. All the data analyses were performed using GraphPad Prism 5 from GraphPad Software, Inc., San Diego, USA.
The serum level of blood urea nitrogen (BUN) was measured for assessing the renal function while those of alanine aminotransferase (ALT) and aspartate aminotransferase (AST) were measured using Ektachem DT system (Johnson & Johnson Clinical Diagnostics) for assessing the liver function. The EDTA treated anticoagulated blood samples were also collected for making a complete peripheral blood count by using a Hematology Analyzer (Sysmex, XT-1800i).
For this study, 0.161 ml nsl-8 stock solution made in DMSO was mixed with 1.339 ml 0.9% w/v saline so that the volume of a final dosage solution prepared to feed an animal was 1.5 ml and containing 10% DMSO. Therefore, both administration routes and vehicles used in treating groups 2a-2b and 3a-3b animals were quite different from that used in treating groups 1a-1b animals.

- IC50 (H460): 4.9 µM
- weight loss in animals (A549 implanted tumors): 16%
- counts of neutrophils and lymphocytes (HCC827 implanted tumors; mouse, in vivo): increase
- counts of red blood cells (HCC827 implanted tumors; mouse, in vivo): decrease
- total white blood cells and platelets counted versus vehicle (HCC827 implanted tumors; mouse, in vivo): no significant difference
SMILES: COc1ccc(-c2ccc3cc(C(=O)O)ccc3c2)cc1C12CC3CC(CC(C3)C1)C2 [nsl-8, 6-[3-(1-adamantyl)-4-methoxyphenyl]-2-naphthalenecarboxylic acid]
- Tumor inhibition rate (%) (HCC827 implanted tumors; Day 0): 0%
- Tumor inhibition rate (%) (HCC827 implanted tumors; Day 3): 16.6%
- Tumor inhibition rate (%) (HCC827 implanted tumors; Day 7): 13.8%
- Tumor inhibition rate (%) (HCC827 implanted tumors; Day 10): 22.4%
- Tumor inhibition rate (%) (HCC827 implanted tumors; Day 14): 28.7%
- serum levels of BUN, ALT, and AST among treatment groups (HCC827 implanted tumors; mouse, in vivo): no significant difference
